Test [1] concerns malondialdehyde. Briefly: Antioxidant capacity: malondialdehyde in exercised rats. Format: in vivo, rat. The conditions noted are these: 6 weeks. The procedure: Fifty-six (56) Male Wistar rats that were 8-week old were obtained. The rats were reared at the temperature of 22 ± 2° C., the humidity of 55 ± 5%, and with a 12-hrs light-12-hrs dark cycle. All procedures involving rats were conducted in strict compliance with the relevant laws, the Animal Welfare Act, Public Health Services Policy, and guidelines established by the Institutional Animal Care and Use Committee of the Institute of the contracted University which completed the study.
After a week of the adaptation period, the rats were divided into eight equal groups containing seven rats each. The initial body weights of the rats were similar in all the groups (214.53 grams ± 4.67; P > 0.05).
Groups 1 and 2 were not subjected to an exercise routine. Groups 3-8 were subjected to an exercise regimen consisting of a week training period with an incremental exercise capacity described below. After the week training period the exercise regimen followed was each rat in Groups 3-8 were subjected to 6 weeks of running at 25 m/min during 45 min […]. […] These correspond to 0, 250, 500, 1000, 2000 and 4000 mg per day for humans, respectively.
The exercised rats were subjected to treadmill exercise on a motorized rodent treadmill (Commat Limited, Ankara, Turkey). The treadmill contained a stimulus grid at the back end of the treadmill giving an electric shock when the animal placed its paw on the grid. […] To eliminate the diurnal variations, all exercise tests were applied during the same time of the day. The week of training period was provided as pre-training practice for the animals to get familiar with the treadmill equipment and handling. In doing so, the rats in the exercise training groups were accustomed by treadmill exercise over 5 days such that: (i) 1st day, 10 m/min for 10 min, (ii) 2nd day, 20 m/min for 10 min, (iii) 3rd day, 25 m/min for 10 min, (iv) 4th day, 25 m/min for 20 min and (v) 5th day, 25 m/min for 30 min. After the training period, the rats in treadmill exercise groups ran on the treadmill 25 m/min for 45 min/ per day and five days per week for 6 weeks according to the protocol described by Sahin et al. Capsaicinoids Improve the Consequences of Physical Activity. Toxicol Rep. 2018;5:598-607, which is hereby incorporated by reference.
The exercise regimen was used to induce an inflammation and oxidative stress conditions. […] The results of malondialdehyde, superoxide dismutase, catalase, and glutathione peroxidase for each rat group are shown in TABLE 2.

In test [2] the test system is ACE-1. Briefly: Rat plasma serum ELISA, ACE-1. The conditions noted are these: exercised rats, FIG. 5A. It is filed as in vivo.
The test system of test [3] is ACE-2. The test can be described thus: ACE-2 surface protein in Calu-3 cells, flow cytometry. It is filed as cell-based, human. The conditions noted are these: Calu-3, 100 uM, 24-hr pre-treatment. The procedure: ACE-2 surface expression protein in Calu-3 cells was evaluated using FACS flow cytometry sorting. […] Cells were detached with PBS/EDTA at room temperature. FBS-containing growth media was added to cells to inactivate TE. Cells were spun for 5 min at […]. Supernatant was removed and cells were washed twice in flow buffer (PBS+0.2% FBS). Between 100,000-200,000 cells were stained for ACE-2 and BST2 (absent in Calu-3and used as a control) for 30 min on ice using goat anti-ACE-2 (R&D Systems; AF933) and PE-conjugated BST2 (BioLegend; Cat # 348406). Cells were washed once and stained with Alexa Fluor 647 donkey anti-goat for 30 min on ice. Cells were washed once, resuspended in PBS/EDTA and samples were acquired on a FACS LSR Fortessa cytometer (BD Bioscience). Data were analyzed using Flowjo (Version 10.1).
The testing was repeated with D-Carnitine as well. Cells were either stained for ACE2 using either anti-ACE2 Ab, anti-BST2 Ab or the combination or both followed by secondary Ab isotype. […] The table represents the fluorescence counts.

In test [4] the test system is SARS-CoV-2. Briefly: microbe, parasite or virus in culture. It is filed as cell-based.

Marks after values point to notes of the source that are not given here.

As usually defined, the IC50 is the concentration at which inhibition is half-maximal. Turning to `C[N+](C)(C)C[C@H](O)CC(=O)[O-]` [L-carnitine], the MDA in test [1] (Car200: 200 mg/kg oral gavage, no exercise) is 0.693±0.021^b µmol/L; in test [1] (Ex+Car25: exercise, 25 mg/kg oral gavage) it was 0.599±0.021^c µmol/L; in test [1] (Ex+Car50: exercise, 50 mg/kg oral gavage), 0.549±0.014^cd µmol/L; in test [1] (Ex+Car100: exercise, 100 mg/kg oral gavage) it was 0.553±0.018^cd µmol/L; in test [1] (Ex+Car200: exercise, 200 mg/kg oral gavage), 0.489±0.019^de µmol/L; in test [1] (Ex+Car400: exercise, 400 mg/kg oral gavage), 0.419±0.009^e µmol/L. Besides, the “serum ACE-1” value in test [2] is “near normal levels”. In addition, in test [3], the “decrease in the ACE-2 protein at the cell surface” value is listed as “about 75%”. Moreover, the “virus growth (plaque assay)” value in test [4] is “successful at inhibiting virus growth”. In test [4] (Severe acute respiratory syndrome coronavirus 2, Calu-3, read-out: IC50, inhibition of Calu-3 infection), the IC50 amounted to 139 µM.

The values above are taken from patent US20230346735A1, “Nutritional Composition Comprising Carnitine and Method for Treating or Preventing an Infection in a Mammal” (priority 2020, published 2023).
